# Experimental data published in patent US20250026762A1, “FUSED PYRAZOLE UREA ANALOGS AS GLUCOSYLCERAMIDE SYNTHASE INHIBITORS” (Merck Sharp & Dohme LLC, priority 2021, published 2025).
# Target: glucosylceramide synthase (GCS) enzyme in Golgi preparations from human A375 malignant melanoma skin cells (Homo sapiens (Human), UniProt Q16739)
# Assay: UDP-Glo glucosylceramide synthase biochemical assay
# Settings: 1.5 μg crude golgi preparation; C6 ceramide and UDP-glucose at 2×Km; 20 h incubation at room temperature; luminescence
# Source text: UDP-Glo™ Glucosylceramide Synthase Biochemical Assay
# A UDP-Glo™ glucosylceramide synthase biochemical assay was utilized to evaluate the effect of test compounds on the activity of endogenous levels of GCS enzyme contained within Golgi preparations isolated from human A375 malignant melanoma skin cells. The UDP-Glo™ glucosylceramide synthase assay uses UDP-Glucose as a nucleotide-glycosyl donor and ceramide as substrate acceptor molecules. In the reaction, glucosylceramide synthase (GCS) transfers glucose from UDP-Glucose to ceramide. Glucosylceramide and UDP are released as products.
# Using Promega's UDP-Glo™ Glycosyltransferase assay kit (Promega Corporation, Madison, WI, USA (Promega)), GCS activity was indirectly measured by detecting the amount of UDP produced. An aliquot of GCS enzyme (1.5 μg crude golgi preparation, total protein) and titrated test compound were aliquoted to each well and incubated for 30 minutes at room temperature. Substrate mixture was prepared by mixing C6 ceramide (Avanti Polar Lipids, Alabaster, AL USA (Avanti)) (micelles prepared at 0.6 mM in 0.6 mM DOPC) and UDP-glucose (20 μM; Promega), at concentrations equivalent to 2×Km, in assay buffer (25 mM HEPES (pH 7.5), 50 mM KCl, 5 mM MgCl2). An equivalent volume of substrate mixture was then added to each well. Following a 20 h incubation at room temperature to allow for GCS turnover of substrate, an equal volume of UDP detection reagent (Promega) was added to each well and incubated for an additional 75 minutes at room temperature to simultaneously convert the accumulated UDP product into ATP and generate light in a luciferase reaction. The generated light was detected using a luminometer. […] luminescence values (RLUs) were normalized to mean “min” and “max” effects, as determined on each plate. “Min” was defined as the mean of the values of the wells treated with vehicle (DMSO) and which represent 0% inhibition; “max” was defined as the mean of the values of the wells treated with a reference inhibitor and which represent the 100% effect. Values for % Emax and EC50 were determined by best-fitting the normalized data to a curve in Activity Base along a four-parameter logistic nonlinear regression (4PL) model (based on the Levenberg-Marquardt algorithm and defined by the equation below): […]
# where: n is 4PMin (bottom of the curve); m is 4PMax (top of the curve); i is IP (inflection point of curve); andp is slope. See Levenberg, K., “A Method for the Solution of Certain Problems in Least Squares”, Quart. Appl. Math. 2, (1944), pp 164-168 and Marquardt, D., “An Algorithm for Least Squares Estimation on Nonlinear Parameters”, SIAM J. Appl. Math. 11, (1963) pp 431-441.
# glucosylceramide synthase (GCS) enzyme in Golgi preparations from human A375 malignant melanoma skin cells, sequence (Q16739 whole entry): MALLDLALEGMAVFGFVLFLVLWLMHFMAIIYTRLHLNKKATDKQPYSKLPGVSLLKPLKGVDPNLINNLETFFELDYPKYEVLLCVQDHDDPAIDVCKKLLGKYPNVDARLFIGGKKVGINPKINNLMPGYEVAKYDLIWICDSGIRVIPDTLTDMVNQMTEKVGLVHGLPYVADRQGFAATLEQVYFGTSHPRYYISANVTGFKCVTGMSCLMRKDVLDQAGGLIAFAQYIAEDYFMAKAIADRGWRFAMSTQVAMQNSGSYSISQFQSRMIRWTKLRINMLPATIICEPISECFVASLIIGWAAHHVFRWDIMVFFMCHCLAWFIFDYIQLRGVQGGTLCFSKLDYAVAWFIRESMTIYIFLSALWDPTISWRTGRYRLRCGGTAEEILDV
row,SMILES,EC50
1,"O=C(N1CCN2CCC1CC2)n1nc(-n2cc(C(F)(F)F)cn2)c2c1CCC2 [Compound 54, (1,4-diazabicyclo[3.2.2]nonan-4-yl)(3-(4-(trifluoromethyl)-1H-pyrazol-1-yl)-5,6-dihydrocyclopenta[c]pyrazol-1(4H)-yl)methanone]",0.8 nM
2,"O=C(N1CCN2CCC1CC2)n1nc(-n2cc(Cl)cn2)c2c1COCC2 [Compound 55, (1,4-diazabicyclo[3.2.2]nonan-4-yl)(3-(4-chloro-1H-pyrazol-1-yl)-4,7-dihydropyrano[3,4-c]pyrazol-1(5H)-yl)methanone]",10.4 nM
3,"O=C(N1CCN2CCC1CC2)n1nc(-n2cc(Cl)cn2)c2c1CCC2 [Compound 56, (1,4-diazabicyclo[3.2.2]nonan-4-yl)(3-(4-chloro-1H-pyrazol-1-yl)-5,6-dihydrocyclopenta[c]pyrazol-1(4H)-yl)methanone]",3 nM
4,"Cc1cnn(-c2nn(C(=O)N3CCN4CCC3CC4)c3c2CCC3)c1 [Compound 57, (1,4-diazabicyclo[3.2.2]nonan-4-yl)(3-(4-methyl-1H-pyrazol-1-yl)-5,6-dihydrocyclopenta[c]pyrazol-1(4H)-yl)methanone]",9.2 nM
5,"COc1cnn(-c2nn(C(=O)N3CCN4CCC3CC4)c3c2CCC3)c1 [Compound 58, (1,4-diazabicyclo[3.2.2]nonan-4-yl)(3-(4-methoxy-1H-pyrazol-1-yl)-5,6-dihydrocyclopenta[c]pyrazol-1(4H)-yl)methanone]",10 nM
6,"O=C(N1CCN2CCC1CC2)n1nc(-n2cc(C(F)(F)F)cn2)c2c1CCOC2 [Compound 59, (1,4-diazabicyclo[3.2.2]nonan-4-yl)(3-(4-(trifluoromethyl)-1H-pyrazol-1-yl)-6,7-dihydropyrano[4,3-c]pyrazol-1(4H)-yl)methanone]",3.1 nM
7,"O=C(N1CCN2CCC1CC2)n1nc(-n2cc(Cl)cn2)c2c1CCOC2 [Compound 60, (1,4-diazabicyclo[3.2.2]nonan-4-yl)(3-(4-chloro-1H-pyrazol-1-yl)-6,7-dihydropyrano[4,3-c]pyrazol-1(4H)-yl)methanone]",4.8 nM
8,"O=C(N1CCN2CCC1CC2)n1nc(-n2cc(C(F)(F)F)cn2)c2c1[C@H]1C[C@H]1C2 [Compound 61, (1,4-diazabicyclo[3.2.2]nonan-4-yl)((4aS,5aS)-3-(4-(trifluoromethyl)-1H-pyrazol-1-yl)-4,4a,5,5a-tetrahydro-1H-cyclopropa[4,5]cyclopenta[1,2-c]pyrazol-1-yl)methanone]",0.1 nM
9,"CC1CCOc2c1c(-c1ccc(F)cc1)nn2C(=O)N1CCN2CCC1CC2 (stereo not drawn) [Compound 62, R and S-(1,4-diazabicyclo[3.2.2]nonan-4-yl)(3-(4-fluorophenyl)-4-methyl-5,6-dihydropyrano[2,3-c]pyrazol-1(4H)-yl)methanone]",7.7 nM
10,"CC1CCc2c(-c3ccc(F)cc3)nn(C(=O)N3CCN4CCC3CC4)c2O1 (stereo not drawn) [Compound 63, R and S-(1,4-diazabicyclo-[3.2.2]nonan-4-yl)(3-(4-fluorophenyl)-6-methyl-5,6-dihydropyrano[2,3-c]pyrazol-1(4H)-yl)methanone]",17.5 nM
11,"Cc1c(-c2ccc(F)cc2)nn(C(=O)N2CCN3CCC2CC3)c1C [Compound 64, (1,4-diazabicyclo[3.2.2]nonan-4-yl)(3-(4-fluorophenyl)-4,5-dimethyl-1H-pyrazol-1-yl)methanone]",8.8 nM

# System: GD and PD patient-derived induced pluripotent stem cell (iPSC) neurons
# Assay: not given
# Settings: Zunke, F. et al., Neuron 2018; cited from earlier work
row,SMILES,formation of pathological α-synuclein aggregates
1,"CCCCCCCC(=O)N[C@H](CN1CCCC1)[C@H](O)c1ccc2c(c1)OCCO2 [eliglustat, Eliglustat]",reverse the formation of pathological α-synuclein aggregates
